Experimental findings from patent US20240018121A1, “NOVEL HETEROAROMATIC COMPOUNDS EXHIBITING ANTIFUNGAL ACTIVITY AND THEIR METHOD OF USE” (FOX CHASE CHEMCIAL DIVERSITY CENTER, INC., priority 2020, published 2024) are described below.

Format in all cases: cell-based
For test [1], the system named is Aspergillus flavus AFL1 (ATCC MYA-3631). The test is described as follows: Fungal MIC Protocol, Aspergillus flavus. The note with it: Aspergillus flavus, read-out: MIC Aspergillus flavus 3631. How it is done:
(§1) Fungal MIC Protocol: RPMI/MOPS media (Roswell Park Memorial Institute/3-morpholinopropane-1-sulfonic acid media) is prepared by dissolving 8.4 grams RPMI […] (Sigma cat #R1383), 34.52 grams MOPS buffer (Sigma cat #M3.183) and 2 […] glucose in 900 mL deionized water. The pH is adjusted to 7.0 with NaOH and filter sterilized. 0.1 mL, of a stock spore suspension (or loop from frozen stock) is inoculated to a 75 mL tissue culture flask (Falcon cat #353136) containing 50 mL of Potato Dextrose Agar (PDA, 24 grams PD broth (Fisher cat #DF 0549179), 20 grams agar (Fisher cat #BP 1423500) per liter water). Aspergillus and Fusarium strains are grown at 35° C. and Mucor strains are grown at room temperature for 3-5 days. Spores are harvested by flooding the flask with 5 mL phosphate buffered saline (PBS) pH 7.4+0.1% Tween-20 and several glass beads (Fisher cat #S800243) are added to aid in agitation. The supernatant is removed and the OD530 of a 1:100 dilution is measured. Spores are diluted in RPMI/MOPS to a final OD530 of 0.002 for Aspergillus and an OD530 of 0.005 for Fusarium and Mucor. The final concentration of spores is approximately 2×10^4 cfu/mL. Test compound(s) are diluted to 200 ug/mL in RPMI/MOPS ([…]). Ten (10) serial dilutions are prepared with RPMI/MOPS in a 96-well round bottom plate (Fisher cat #353136). For Mucor strains a sterile flat-bottom 96-well plate is used. 50 μl of compound dilutions in duplicate are added to a sterile 96-well round bottom plate. 50 ul of diluted spores are added to the compound-containing plates. Control wells include 1) compound but no cells and 2) spores but no compound. Mix the plates gently by hand, place in ziplock bags and
(§2) incubate at 35° C. for 48 hours. […]

The subject of test [2] is Aspergillus fumigatus T33439 (ATCC MYA-3626). The test is described as follows: Fungal MIC Protocol, Aspergillus fumigatus. The note with it: Aspergillus fumigatus, read-out: MIC Aspergillus fumigatus 3626. How it is done: as §1, §2
The subject of test [3] is Candida albicans GDH2346. In words: Candida Minimal Inhibitory Concentration (MIC). The note with it: Candida albicans, GDH2346; 50% growth inhibition at 48 hours; read-out: MIC-50 Candida albicans GDH2346. How it is done: Candida Minimal Inhibitory Concentration (MIC): RPMI/MOPS media is prepared by dissolving 8.4 g RPMI 1640, 34.52 g MOPS buffer and 2 g glucose in 900 mL water. The pH is adjusted to 7.0 with NaOH. The total volume is brought to 1 L and the resulting solution is filter sterilized. The Candida stock is streaked on a Yeast extract Peptone Dextrose (YPD) agar plate and grown at 35° C. for isolation of single colonies. Compounds of the disclosure are diluted to 200 μg/mL in RPMI/MOPS (4.8 ul of 10 mg/mL DMSO stock in 240 ul media). Ten (10) 1:2 serial dilutions are prepared in RPMI/MOPS in a 96-well round bottom plate. Fifty (50) μl of compound dilutions are transferred in duplicate to a sterile tissue culture-treated 96-well flat-bottom, black-sided polypropylene plate. A single colony of Candida from the YPD plate is re-suspended in 5 mL phosphate buffered saline (BS) and optical density (OD) at 600 nm is measured. The suspension is adjusted to OD=1.0 and a 1:1000 dilution is prepared in RPMI/MOPS. Fifty (50) ul aliquots of the diluted yeast are added to the plates containing 50 μL of compound to all wells except 12E-H. Control wells include: 12 A-D cells, no compound and 12 E-H no cells, no compound. The plates are mixed gently by hand and placed in Ziplok bags in a 35° C. incubator. The OD600 is measured at 24 and 48 hours.

Test [4] concerns Fusarium falciforme FS1 (ATCC MYA-3636). In words: Fungal MIC Protocol, Fusarium falciforme. As to conditions: Fusarium falciforme, read-out: MIC Fusarium falciforme 3636. How it is done: as §1, §2
Test [5] has as its system Fusarium solani (ATCC 58877). The test is described as follows: Fungal MIC Protocol, Fusarium solani. The note with it: Fusarium solani, read-out: MIC Fusarium solani 58877. How it is done: as §1, §2
In test [6] the test system is Mucor circinelloides 1463(62) (ATCC 26759). In words: Fungal MIC Protocol, Mucor circinelloides (MIC-50). As to conditions: Mucor circinelloides, read-out: MIC-50 Mucorales circinelloides 26579. How it is done: as §1
(§3) incubate at 35° C. for 48 hours. Score the MIC visually (lowest concentration of compound showing >50% growth inhibition) using an inverted mirror.

In test [7] the test system is Mucor ramosissimus 057718 (ATCC 90286). The test is described as follows: Fungal MIC Protocol, Mucor ramosissimus (MIC-50). As to conditions: Mucor ramosissimus, read-out: MIC-50 Mucorales ramosissimus 90286. How it is done: as §1, §3
Setting [8] is: 100% growth inhibition at 48 hours.
The mark [9] stands for this setting: ATCC58877, 100% growth inhibition at 48 hours.
Where [10] appears, read: ATCC26759, 50% growth inhibition at 48 hours.
The mark [11] stands for this setting: ATCC90286, 50% growth inhibition at 48 hours.

In brackets after ≈: the same amount, converted by molar mass. Where a name gives a salt, the structure may show the parent alone. Read-outs that look alike come from different tables or passages of the source.

Turning to `Cc1cc(C2CCN(C(=N)N)CC2)ccc1-c1nnc(-c2ccc(C3CCN(C(=N)N)CC3)cc2)o1` [Example 53, 4-(4-(5-(4-(1-Carbamimidoylpiperidin-4-yl)-2-methylphenyl)-1,3,4-oxadiazol-2-yl)phenyl)piperidine-1-carboximidamide], the MIC in test [1] (setting [8]) came to 6.25 µg/mL (≈ 12.8 µM); in test [2] (setting [8]) it was 25 µg/mL (≈ 51.4 µM). Moreover, in test [3], the MIC50 was 1.56 µg/mL (≈ 3.21 µM).

Turning to `N=C(N)N1CC=C(c2ccc(-c3nnc(-c4ccc(C5=CCN(C(=N)N)CC5)cc4C(F)(F)F)o3)cc2)CC1` [Example 46, 4-(4-(5-(4-(1-Carbamimidoyl-1,2,3,6-tetrahydropyridin-4-yl)-2-(trifluoromethyl)phenyl)-1,3,4-oxadiazol-2-yl)phenyl)-5,6-dihydropyridine-1(2H)-carboximidamide], the MIC in test [1] (setting [8]) and in test [2] (setting [8]) was 1.56 µg/mL (≈ 2.91 µM) each time. Moreover, in test [3], the MIC50 was 0.2 µg/mL (≈ 0.373 µM).

`Cc1cc(N2CCN(C(=N)N)CC2)ccc1-c1nnc(-c2ccc(N3CCN(C(=N)N)CC3)cc2)o1` [Example 61, 4-(4-{5-[4-(4-Carbamimidoylpiperazin-1-yl)-2-methylphenyl]-1,3,4-oxadiazol-2-yl}phenyl)piperazine-1-carboximidamide]: the MIC in test [1] (setting [8]) was 3.13 µg/mL (≈ 6.41 µM); in test [2] (setting [8]) it was 0.78 µg/mL (≈ 1.6 µM). Further, the MIC50 in test [3] was determined as 1.56 µg/mL (≈ 3.19 µM).

As to `Cn1nc(-c2ccc(N3CCN(C(=N)N)CC3)cc2)cc1-c1ccc(N2CCN(C(=N)N)CC2)cc1` [Example 55, 4,4′-(4,4′-(1-Methyl-1H-pyrazole-3,5-diyl)bis(4,1-phenylene)) dipiperazine-1-carboximidamide], the values for the MIC in test [1] (setting [8]) and in test [2] (setting [8]) were 3.13 µg/mL (≈ 6.43 µM) and 0.78 µg/mL (≈ 1.6 µM), respectively. Also, the MIC50 in test [3] was 1.56 µg/mL (≈ 3.21 µM).

In the case of `Cc1c(C2=CCN(C(=N)N)CC2)ccc(-c2nnc(-c3ccc(C4=CCN(C(=N)N)CC4)cc3)o2)c1C` [Example 44, 4-(4-(5-(4-(1-Carbamimidoyl-1,2,3,6-tetrahydropyridin-4-yl)-2,3-dimethylphenyl)-1,3,4-oxadiazol-2-yl)phenyl)-5,6-dihydropyridine-1(2H)-carboximidamide], the minimal inhibitory concentration (MIC) in test [1] (setting [8]) was found to be 1.56 µg/mL (≈ 3.14 µM); in test [2] (setting [8]), 6.25 µg/mL (≈ 12.6 µM). Moreover, the MIC50 in test [3] is 0.39 µg/mL (≈ 0.785 µM).

Regarding `Cc1cc(C2=CCN(C(=N)N)CC2)cc(C)c1-c1nnc(-c2ccc(C3=CCN(C(=N)N)CC3)cc2)o1` [Example 45, 4-(4-(5-(4-(1-Carbamimidoyl-1,2,3,6-tetrahydropyridin-4-yl)-2,6-dimethylphenyl)-1,3,4-oxadiazol-2-yl)phenyl)-5,6-dihydropyridine-1(2H)-carboximidamide], the MIC in test [1] (setting [8]) and in test [2] (setting [8]) was 0.39 µg/mL (≈ 0.785 µM) throughout. In addition, the MIC50 in test [3] is 0.39 µg/mL (≈ 0.785 µM).

Regarding `Cc1cc(-c2nnc(-c3ccc(N4CCN(C(=N)N)CC4)cc3)o2)ccc1N1CCN(C(=N)N)CC1` [Example 60, 4-(4-{5-[4-(4-Carbamimidoylpiperazin-1-yl)-3-methylphenyl]-1,3,4-oxadiazol-2-yl}phenyl)piperazine-1-carboximidamide], the MIC in test [1] (setting [8]) and in test [2] (setting [8]) was 25 µg/mL (≈ 51.2 µM) each time. Further, in test [3], the MIC50 is 1.56 µg/mL (≈ 3.19 µM).

Take `COc1cc(-c2nnc(-c3ccc(C4=CCN(C(=N)N)CC4)c(OC)c3)n2CCO)ccc1C1=CCN(C(=N)N)CC1` [Example 76, 4-(4-{5-[4-(1-carbamimidoyl-1,2,3,6-tetrahydropyridin-4-yl)-3-methoxyphenyl]-4-(2-hydroxyethyl)-4H-1,2,4-triazol-3-yl}-2-methoxyphenyl)-1,2,3,6-tetrahydropyridine-1-carboximidamide trifluoroacetate]: the MIC in test [1] (48 h) is 3.13 µg/mL; in test [2] (48 h), 0.78 µg/mL; in test [4] (48 h), 0.78 µg/mL; in test [5] (ATCC58877, 48 h), 0.39 µg/mL. In addition, the MIC50 in test [6] (ATCC26759, 48 h) came out at 25 µg/mL; in test [7] (ATCC90286, 48 h), 25 µg/mL.

With `N=C(N)N1CC=C(c2ccc(-c3nnc(-c4ccc(C5=CCN(C(=N)N)CC5)cc4F)n3CCOCCO)c(F)c2)CC1` [Example 77, 4-(4-{5-[4-(1-carbamimidoyl-1,2,3,6-tetrahydropyridin-4-yl)-2-fluorophenyl]-4-[2-(2-hydroxyethoxy)ethyl]-4H-1,2,4-triazol-3-yl}-3-fluorophenyl)-1,2,3,6-tetrahydropyridine-1-carboximidamide trifluoroacetate], the MIC is 0.78 µg/mL in test [1] (48 h); 0.2 µg/mL in test [2] (48 h); 0.2 µg/mL in test [4] (48 h); 0.2 µg/mL in test [5] (ATCC58877, 48 h). The MIC50 was 6.25 µg/mL in test [6] (ATCC26759, 48 h) and 25 µg/mL in test [7] (ATCC90286, 48 h).

For `N=C(N)N1CC=C(c2ccc(-c3nnc(-c4ccc(C5=CCN(C(=N)N)CC5)cc4)n3C3CC3)cc2)CC1` [Example 4, 4,4′-(4,4′-(4-Cyclopropyl-4H-1,2,4-triazole-3,5-diyl)bis(4,1-phenylene)) bis(5,6-dihydropyridine-1(2H)-carboximidamide)], the MIC was 0.39 µg/mL (≈ 0.768 µM) in test [1] (setting [8]), below 0.1 µg/mL in test [2] (setting [8]), below 0.1 µg/mL in test [4] (setting [8]) and 0.2 µg/mL (≈ 0.394 µM) in test [5] (setting [9]). Also, the MIC50 in test [6] (setting [10]) came to 0.39 µg/mL (≈ 0.768 µM); in test [7] (setting [11]) it was 1.56 µg/mL (≈ 3.07 µM).

For `CNc1cc(C2=CCN(C(=N)N)CC2)ccc1-c1nnc(-c2ccc(C3=CCN(C(=N)N)CC3)cc2F)o1` [Example 47a, 4-(4-(5-(4-(1-Carbamimidoyl-1,2,3,6-tetrahydropyridin-4-yl)-2-(methylamino)phenyl)-1,3,4-oxadiazol-2-yl)-3-fluorophenyl)-5,6-dihydropyridine-1(2H)-carboximidamide], the results for the MIC in test [1] (setting [8]) and in test [2] (setting [8]) were 0.39 µg/mL (≈ 0.756 µM) and 1.56 µg/mL (≈ 3.03 µM), respectively. Besides, in test [3], the MIC50 is 0.78 µg/mL (≈ 1.51 µM).

For `N=C(N)N1CCC(c2ccc(-c3nnc(-c4ccc(C5CCN(C(=N)N)CC5)cc4)o3)cc2)CC1` [Example 52, 4,4′-(4,4′-(1,3,4-Oxadiazole-2,5-diyl)bis(4,1-phenylene)) dipiperidine-1-carboximidamide], the MIC in test [1] (setting [8]) came out at 6.25 µg/mL (≈ 13.2 µM); in test [2] (setting [8]), 50 µg/mL (≈ 106 µM). In addition, the MIC50 in test [3] came out at 4.3 µg/mL (≈ 9.1 µM).

For `CN(C)CCn1c(-c2ccc(C3=CCN(C(=N)N)CC3)cc2F)nnc1-c1ccc(C2=CCN(C(=N)N)CC2)cc1F.Cl` [Example 72, 4-(4-{5-[4-(1-carbamimidoyl-1,2,3,6-tetrahydropyridin-4-yl)-2-fluorophenyl]-4-[2-(dimethylamino)ethyl]-4H-1,2,4-triazol-3-yl}-3-fluorophenyl)-1,2,3,6-tetrahydropyridine-1-carboximidamide hydrochloride], the MIC in test [1] (setting [8]) was 0.78 µg/mL; in test [2] (setting [8]), 0.39 µg/mL; in test [4] (setting [8]), 0.2 µg/mL; in test [5] (setting [9]), 0.1 µg/mL. The values for the MIC50 in test [6] (setting [10]) and in test [7] (setting [11]) were 6.25 µg/mL and 12.5 µg/mL, respectively.
